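Here, GI50 denotes the concentration required for 50% inhibition of growth. Definition used: TGI = concentration required for complete inhibition of growth.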
Key:
Test in all cases: NCI-60 cell line screen, 384-well format
SNB-19 CNS = test system: SNB-19 CNS
MALME-3M melanoma = test system: MALME-3M melanoma
HCC-2998 colon = test system: HCC-2998 colon
HT29 colon = test system: HT29 colon
HOP-62 NSCLC = test system: HOP-62 NSCLC
OVCAR-5 ovarian = test system: OVCAR-5 ovarian
PC-3 prostate = test system: PC-3 prostate
OVCAR-4 ovarian = test system: OVCAR-4 ovarian
SK-MEL-28 melanoma = test system: SK-MEL-28 melanoma
HCT-15 colon = test system: HCT-15 colon
NCI-H460 NSCLC = test system: NCI-H460 NSCLC
786-0 renal = test system: 786-0 renal
A549 NSCLC = test system: A549 NSCLC
SF-539 CNS = test system: SF-539 CNS
MOLT-4 leukemia = test system: MOLT-4 leukemia
SN12C renal = test system: SN12C renal
HCT-116 colon = test system: HCT-116 colon
BT-549 breast = test system: BT-549 breast
UO-31 renal = test system: UO-31 renal
SF-268 CNS = test system: SF-268 CNS
TK-10 renal = test system: TK-10 renal
CAKI-1 renal = test system: CAKI-1 renal
MCF7 breast = test system: MCF7 breast
M14 melanoma = test system: M14 melanoma
OVCAR-8 ovarian = test system: OVCAR-8 ovarian
SF-295 CNS = test system: SF-295 CNS
SNB-75 CNS = test system: SNB-75 CNS
NCI-H23 lung = test system: NCI-H23 lung
ACHN renal = test system: ACHN renal
COLO 205 colon = test system: COLO 205 colon
LOX IMVI melanoma = test system: LOX IMVI melanoma
HL-60(TB) leukemia = test system: HL-60(TB) leukemia
UACC-62 melanoma = test system: UACC-62 melanoma
UACC-257 melanoma = test system: UACC-257 melanoma
NCI/ADR-RES ovarian = test system: NCI/ADR-RES ovarian
SW-620 colon = test system: SW-620 colon
CCRF-CEM leukemia = test system: CCRF-CEM leukemia
SK-MEL-5 melanoma = test system: SK-MEL-5 melanoma
SK-OV-3 ovarian = test system: SK-OV-3 ovarian
IGROV1 ovarian = test system: IGROV1 ovarian
NCI-H522 lung = test system: NCI-H522 lung
MDA-MB-468 breast = test system: MDA-MB-468 breast
SK-MEL-2 melanoma = test system: SK-MEL-2 melanoma
T-47D breast = test system: T-47D breast
OVCAR-3 ovarian = test system: OVCAR-3 ovarian
RXF 393 renal = test system: RXF 393 renal
U251 glioblastoma = test system: U251 glioblastoma

## O=C(Nc1cccc(C(F)(F)F)c1)Nc1cc(S(=O)(=O)NC2CC2)ccc1-c1ccsc1
SNB-19 CNS
  GI50: 4.51 µM
  TGI: 14.7 µM
MALME-3M melanoma
  GI50: 6.91 µM
  TGI: 18.9 µM
HCC-2998 colon
  GI50: 5.7 µM
  TGI: 16.2 µM
HT29 colon
  GI50: 4.35 µM
  TGI: 14.9 µM
HOP-62 NSCLC
  GI50: 3.98 µM
  TGI: 13.4 µM
OVCAR-5 ovarian
  GI50: 13.8 µM
  TGI: 26.8 µM
PC-3 prostate
  GI50: 3.92 µM
  TGI: 13.3 µM
OVCAR-4 ovarian
  GI50: 5.19 µM
  TGI: 17 µM
SK-MEL-28 melanoma
  GI50: 10.9 µM
  TGI: 22.9 µM
HCT-15 colon
  GI50: 3.49 µM
  TGI: 12.5 µM
NCI-H460 NSCLC
  GI50: 2.4 µM
  TGI: 5.08 µM
786-0 renal
  GI50: 4.09 µM
  TGI: 14.3 µM
A549 NSCLC
  GI50: 4.02 µM
  TGI: 13.7 µM
SF-539 CNS
  GI50: 5.91 µM
  TGI: 15 µM
MOLT-4 leukemia
  GI50: 1.78 µM
  TGI: 3.35 µM
SN12C renal
  GI50: 4.71 µM
  TGI: 17.6 µM
HCT-116 colon
  GI50: 3.17 µM
  TGI: 10.6 µM
BT-549 breast
  GI50: 7.6 µM
  TGI: 19.8 µM
UO-31 renal
  GI50: 4.17 µM
  TGI: 14.9 µM
SF-268 CNS
  GI50: 4.84 µM
  TGI: 14.4 µM
TK-10 renal
  GI50: 3.96 µM
  TGI: 14.1 µM
CAKI-1 renal
  GI50: 3.59 µM
  TGI: 15.2 µM
MCF7 breast
  GI50: 3.68 µM
  TGI: 12.4 µM
M14 melanoma
  GI50: 5.88 µM
  TGI: 16.7 µM
OVCAR-8 ovarian
  GI50: 3.73 µM
  TGI: 13.4 µM
SF-295 CNS
  GI50: 2.96 µM
  TGI: 9.42 µM
SNB-75 CNS
  GI50: 4.25 µM
  TGI: 15.6 µM
NCI-H23 lung
  GI50: 2.83 µM
  TGI: 8.74 µM
ACHN renal
  GI50: 3.25 µM
  TGI: 11.9 µM
COLO 205 colon
  GI50: 5.12 µM
  TGI: 15.7 µM
LOX IMVI melanoma
  GI50: 4.08 µM
  TGI: 13.1 µM
HL-60(TB) leukemia
  GI50: 1.93 µM
  TGI: 3.52 µM
UACC-62 melanoma
  GI50: 7.26 µM
  TGI: 19.5 µM
UACC-257 melanoma
  GI50: 2.89 µM
  TGI: 8.51 µM
NCI/ADR-RES ovarian
  GI50: 6.69 µM
  TGI: 18.3 µM
SW-620 colon
  GI50: 3.87 µM
  TGI: 13.9 µM
CCRF-CEM leukemia
  GI50: 2.4 µM
  TGI: 5.85 µM
SK-MEL-5 melanoma
  GI50: 2.32 µM
  TGI: 5.61 µM
SK-OV-3 ovarian
  GI50: 7.67 µM
  TGI: 19.8 µM
IGROV1 ovarian
  GI50: 8.86 µM
  TGI: 21.7 µM
NCI-H522 lung
  GI50: 2.69 µM
  TGI: 8.11 µM
MDA-MB-468 breast
  GI50: 1.96 µM
  TGI: 4.12 µM
SK-MEL-2 melanoma
  GI50: 2.72 µM
  TGI: 6.07 µM
T-47D breast
  GI50: 2.62 µM
  TGI: 8.35 µM
OVCAR-3 ovarian
  GI50: 2.42 µM
  TGI: 5.79 µM
RXF 393 renal
  GI50: 3.28 µM
  TGI: 12.1 µM
U251 glioblastoma
  GI50: 3.43 µM
  TGI: 11.3 µM

— PubChem BioAssay (NCI)
